Measurements: patent US12122761B2, “2-azaspiro[3.4]octane derivatives as M4 agonists” (NOVARTIS AG, priority 2019, dated 2024)

Assays:
[1] = target: T1, human cloned CHRM2 receptor (M2_CHO cells) (Homo sapiens, UniProt P08172); assay: CHRM2 Ca++ Flux Assay (agonist mode, FDSS 7000EX); assay type: cell-based; conditions: for Emax: Percent Activity measured to EC100 of Carbachol, read-out: M2 FDSS PA; for EC50: agonist mode, geometric mean if tested more than once, read-out: M2 FDSS EC50
T1 construct: expressed in transfected cells; host or cells: CHO-K1
T1 sequence (P08172 1-466): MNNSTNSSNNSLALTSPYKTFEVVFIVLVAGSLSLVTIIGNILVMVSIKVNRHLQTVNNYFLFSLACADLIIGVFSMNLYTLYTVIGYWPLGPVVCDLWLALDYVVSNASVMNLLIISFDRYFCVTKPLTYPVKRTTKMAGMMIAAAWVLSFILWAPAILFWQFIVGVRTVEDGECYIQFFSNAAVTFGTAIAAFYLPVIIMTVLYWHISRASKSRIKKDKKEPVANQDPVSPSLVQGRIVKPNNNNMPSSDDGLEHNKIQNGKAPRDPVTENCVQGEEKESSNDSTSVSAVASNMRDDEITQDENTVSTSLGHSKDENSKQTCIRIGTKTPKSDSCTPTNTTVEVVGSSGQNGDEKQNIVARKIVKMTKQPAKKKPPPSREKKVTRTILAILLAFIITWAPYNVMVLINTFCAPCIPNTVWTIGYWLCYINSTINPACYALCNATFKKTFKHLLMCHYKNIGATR
Method in brief: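 Response expressed as percent activity versus the Carbachol EC100, with curves fitted by four-parameter non-linear regression of triplicates. Stable M2_CHO cells were Ca++ dye-loaded and preincubated 60 min at room temperature in assay buffer containing 20 μM ATP; signal imaged for 3 minutes after compound.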

[2] = target: T2, human cloned CHRM5 receptor (M5_CHO) (Homo sapiens, UniProt P08912); assay: CHRM5 Ca++ Flux Assay (agonist mode, FDSS 7000EX); assay type: cell-based; conditions: for Emax: Percent Activity measured to EC100 of Carbachol, read-out: M5 FDSS PA; for EC50: agonist mode, geometric mean if tested more than once, read-out: M5 FDSS EC50
T2 construct: expressed in transfected cells; host or cells: CHO (M5_CHO)
T2 sequence (P08912 1-532): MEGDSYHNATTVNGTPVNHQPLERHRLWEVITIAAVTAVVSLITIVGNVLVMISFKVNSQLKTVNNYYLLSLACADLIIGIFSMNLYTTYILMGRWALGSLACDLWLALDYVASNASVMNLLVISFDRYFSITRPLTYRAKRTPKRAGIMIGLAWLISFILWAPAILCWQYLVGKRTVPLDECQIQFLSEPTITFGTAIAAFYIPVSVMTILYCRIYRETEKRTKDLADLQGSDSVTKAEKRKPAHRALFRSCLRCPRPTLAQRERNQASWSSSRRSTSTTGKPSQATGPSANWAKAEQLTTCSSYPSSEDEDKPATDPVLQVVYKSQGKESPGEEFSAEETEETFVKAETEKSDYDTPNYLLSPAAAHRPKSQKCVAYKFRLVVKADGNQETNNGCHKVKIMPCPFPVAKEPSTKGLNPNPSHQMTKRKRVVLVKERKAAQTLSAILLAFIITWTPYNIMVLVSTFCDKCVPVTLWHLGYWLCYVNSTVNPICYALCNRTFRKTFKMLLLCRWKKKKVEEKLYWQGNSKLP
Method in brief: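 CHO-K1 cells stably expressing human M3 or M5 receptor were dye-loaded for at least 1 h in HBSS with 20 mM HEPES and 2.5 mM probenecid, then given 11-point compound doses in triplicate.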

| Structure (SMILES) | Emax [1] | Emax [2] | EC50 [2] | EC50 [1] |
| --- | --- | --- | --- | --- |
| O=C(N1CC2(CC[C@H](N3CCC(c4ccccc4C4CCOCC4)CC3)C2)C1)C1(F)CC1 (single isomer, unassigned) [Example 9M] | 0% | 0% | > 25000 nM | – |
| c1ccc(C2CCN([C@@H]3CCC4(C3)CN(c3nncs3)C4)CC2)c(OCC2COC2)c1 [Example 1G, (R)-2-(6-(4-(2-(oxetan-3-ylmethoxy)phenyl)piperidin-1-yl)-2-azaspiro[3.4]octan-2-yl)-1,3,4-thiadiazole] | 38% | 0% | > 25000 nM | 75 nM |
| COCCOc1ccccc1C1CCN([C@@H]2CCC3(C2)CN(c2nnco2)C3)CC1 [Example 2C] | 0% | 0% | > 25000 nM | – |
| O=C(C1COC1)N1CC2(CC[C@@H](N3CCC(c4ccccc4OC4CCCC4)CC3)C2)C1 [Example 7G, (R)-(6-(4-(2-(cyclopentyloxy)phenyl)piperidin-1-yl)-2-azaspiro[3.4]octan-2-yl)(oxetan-3-yl)methanone] | 0% | 0% | > 25000 nM | – |
| O=C(C1COC1)N1CC2(CC[C@@H](N3CCC(c4ccccc4OCCOC4COC4)CC3)C2)C1 [Example 7EE, (R)-oxetan-3-yl(6-(4-(2-(2-(oxetan-3-yloxy)ethoxy)phenyl)piperidin-1-yl)-2-azaspiro[3.4]octan-2-yl)methanone] | 17% | 0% | > 25000 nM | 464 nM |
| Fc1cncc(N2CC3(CC[C@@H](N4CCC(c5ccccc5C5CCOCC5)CC4)C3)C2)c1 [Example 5AA, (R)-2-(5-fluoropyridin-3-yl)-6-(4-(2-(tetrahydro-2H-pyran-4-yl)phenyl)piperidin-1-yl)-2-azaspiro[3.4]octane] | 28% | 0% | > 25000 nM | 1770 nM |
| Fc1cccc(C2CCN([C@@H]3CCC4(C3)CN(c3cncnc3)C4)CC2)c1OC1COC1 [Example 5W, (R)-6-(4-(3-fluoro-2-(oxetan-3-yloxy)phenyl)piperidin-1-yl)-2-(pyrimidin-5-yl)-2-azaspiro[3.4]octane] | 16% | 0% | > 25000 nM | 57 nM |
| CC(C)(O)COc1ccccc1C1CCN([C@@H]2CCC3(C2)CN(c2ncncn2)C3)CC1 [Example 5U, (R)-1-(2-(1-(2-(1,3,5-triazin-2-yl)-2-azaspiro[3.4]octan-6-yl)piperidin-4-yl)phenoxy)-2-methylpropan-2-ol] | 0% | 0% | > 25000 nM | – |
| c1ccc(C2CCN([C@@H]3CCC4(C3)CN(c3nnco3)C4)CC2)c(O[C@@H]2CCOC2)c1 [Example 2B, 2-((R)-6-(4-(2-(((R)-tetrahydrofuran-3-yl)oxy)phenyl)piperidin-1-yl)-2-azaspiro[3.4]octan-2-yl)-1,3,4-oxadiazole] | 32% | 0% | > 25000 nM | 39 nM |
| c1ccc(C2CCN([C@@H]3CCC4(C3)CN(c3cncnc3)C4)CC2)c(OC2CCOCC2)c1 [Example 1L, (R)-2-(pyrimidin-5-yl)-6-(4-(2-((tetrahydro-2H-pyran-4-yl)oxy)phenyl)piperidin-1-yl)-2-azaspiro[3.4]octane] | 28% | 0% | > 25000 nM | 214 nM |
| COCCOc1ccccc1C1CCN([C@@H]2CCC3(C2)CN(c2cnc(C)cn2)C3)CC1 [Example 5Y, (R)-6-(4-(2-(2-methoxyethoxy)phenyl)piperidin-1-yl)-2-(5-methylpyrazin-2-yl)-2-azaspiro[3.4]octane] | 0% | 0% | > 25000 nM | < 26000 nM |

More lines, now with the values ahead:

| Emax [1] | Emax [2] | EC50 [2] | EC50 [1] | Structure (SMILES) |
| --- | --- | --- | --- | --- |
| 0% | 0% | > 25000 nM | – | O=C(C1COC1)N1CC2(CC[C@@H](N3CCC(c4ccccc4Oc4nccs4)CC3)C2)C1 [Example 7C, (R)-oxetan-3-yl(6-(4-(2-(thiazol-2-yloxy)phenyl)piperidin-1-yl)-2-azaspiro[3.4]octan-2-yl)methanone] |
| 0% | 18% | 1120 nM | – | O=C(C1COC1)N1CC2(CC[C@@H](N3CCC(c4ccccc4OCCOC(F)(F)F)CC3)C2)C1 [Example 7DD, (R)-oxetan-3-yl(6-(4-(2-(2-(trifluoromethoxy)ethoxy)phenyl)piperidin-1-yl)-2-azaspiro[3.4]octan-2-yl)methanone] |
| 21% | 0% | > 25000 nM | 91 nM | O=C(C1COC1)N1CC2(CC[C@@H](N3CCC(c4ccccc4OCCC4COC4)CC3)C2)C1 [Example 7KK, (R)-oxetan-3-yl(6-(4-(2-(2-(oxetan-3-yl)ethoxy)phenyl)piperidin-1-yl)-2-azaspiro[3.4]octan-2-yl)methanone] |
| 32% | 0% | > 25000 nM | 458 nM | c1ccc(C2CCN([C@@H]3CCC4(C3)CN(c3nnco3)C4)CC2)c(C2CCOCC2)c1 [Example 2H, (R)-2-(6-(4-(2-(tetrahydro-2H-pyran-4-yl)phenyl)piperidin-1-yl)-2-azaspiro[3.4]octan-2-yl)-1,3,4-oxadiazole] |
| 28% | 0% | > 25000 nM | 92 nM | c1ccc(C2CCN([C@@H]3CCC4(C3)CN(c3nncs3)C4)CC2)c(OCC2CCOCC2)c1 [Example 1I, (R)-2-(6-(4-(2-((tetrahydro-2H-pyran-4-yl)methoxy)phenyl)piperidin-1-yl)-2-azaspiro[3.4]octan-2-yl)-1,3,4-thiadiazole] |
| 22% | 0% | > 25000 nM | 64 nM | c1ccc(C2CCN([C@@H]3CCC4(C3)CN(c3nnco3)C4)CC2)c(OC2CCOCC2)c1 [Example 2F, (R)-2-(6-(4-(2-((tetrahydro-2H-pyran-4-yl)oxy)phenyl)piperidin-1-yl)-2-azaspiro[3.4]octan-2-yl)-1,3,4-oxadiazole] |
| 0% | 0% | > 25000 nM | – | c1ccc(C2CCN([C@@H]3CCC4(C3)CN(c3nnco3)C4)CC2)c(OC2CC3(COC3)C2)c1 [Example 1A, (R)-2-(6-(4-(2-((2-oxaspiro[3.3]heptan-6-yl)oxy)phenyl)piperidin-1-yl)-2-azaspiro[3.4]octan-2-yl)-1,3,4-oxadiazole] |
| 0% | 0% | > 25000 nM | – | CC(C)(O)COc1ccccc1C1CCN([C@@H]2CCC3(C2)CN(c2ncns2)C3)CC1 [Example 3K, (R)-1-(2-(1-(2-(1,2,4-thiadiazol-5-yl)-2-azaspiro[3.4]octan-6-yl)piperidin-4-yl)phenoxy)-2-methylpropan-2-ol] |
| 12% | 13% | 1640 nM | 6880 nM | O=C(C1COC1)N1CC2(CC[C@@H](N3CCC(c4ccccc4OCC4(C(F)(F)F)CC4)CC3)C2)C1 [Example 7II, (R)-oxetan-3-yl(6-(4-(2-((1-(trifluoromethyl)cyclopropyl)methoxy)phenyl)piperidin-1-yl)-2-azaspiro[3.4]octan-2-yl)methanone] |
| 40% | 0% | 4390 nM | 35 nM | c1ccc(C2CCN([C@@H]3CCC4(C3)CN(c3nnco3)C4)CC2)c(OC2COC2)c1 [Example 1D, (R)-2-(6-(4-(2-(oxetan-3-yloxy)phenyl)piperidin-1-yl)-2-azaspiro[3.4]octan-2-yl)-1,3,4-oxadiazole] |
| 41% | 10% | 2020 nM | 30 nM | FC1(COc2ccccc2C2CCN([C@@H]3CCC4(C3)CN(c3nncs3)C4)CC2)COC1 [Example 1H, (R)-2-(6-(4-(2-((3-fluorooxetan-3-yl)methoxy)phenyl)piperidin-1-yl)-2-azaspiro[3.4]octan-2-yl)-1,3,4-thiadiazole] |
